Reference: US10604512B2, “3-(1H-indol-2-yl)-1H-indazoles and therapeutic uses thereof” (Samumed, LLC, priority 2015, dated 2020)
pEC50: −log10 of the molar value.

Assays:
Assay type in all cases: cell-based
IL-6 = test: Inhibition of IL-6 in LPS-stimulated THP-1 human monocyte cells (HTRF); settings: IL-6 inhibition, LPS-stimulated THP-1 cells, HTRF
Method in brief: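 THP-1 cells serum-reduced (1% FBS, 24 h), then 5000 cells/well preincubated 2 h with compound (10-point 1:3 series from 10 μM, 0.1% DMSO) before 500 ng/mL LPS for 22 h at 37 °C. Secreted IL-6 quantified by HTRF 665/620 ratio; DMSO-normalised duplicates fitted to four-parameter EC50; above 10 μM, % inhibition at 10 μM given.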

SW480 colon cancer cells = test: Cell viability assay (CellTiter-Blue) in SW480 colon cancer cells; settings: Homo sapiens, 96 h, four days, CellTiter-Blue
Method in brief: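 SW480 cells (~2×10^3 per well) were exposed to compound for four days at 37 °C/5% CO2, using 8-point 1:3 dilutions from 10 μM to 0.0045 μM in duplicate. Viability was read by resazurin reduction (CellTiter-Blue, ~3 h, Ex 560/Em 590 nm). EC50 came from non-linear regression; above 10 μM, percent inhibition at 10 μM is given.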

[1] = tested on: Primary human fibroblasts derived from IPF patients (LL29 cells) treated with TGF-β1; test: Inhibition of the fibrotic process: αSMA staining in TGF-β1-treated primary human fibroblasts from IPF patients (LL29 cells); settings: Fibroblast, 96 h, % αSMA-positive LL29 cells, TGF-β1 20 ng/mL, 4 days
Method in brief: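 LL29 IPF-patient fibroblasts in 1% FBS stimulated with TGF-β1 (20 ng/mL) and compound (10 μM–1.87 nM, 0.1% DMSO) for 4 days at 37 °C. SYTOX-positive cells excluded; % αSMA-positive cells imaged, normalized to TGF-β1/DMSO wells; EC50 by nonlinear regression, else % inhibition at 10 μM.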

[2] = tested on: Wnt activity (Sp5-Luc reporter, TCF/LEF binding sites) in SW480 colon carcinoma cells; test: Screening assay for Wnt activity: Sp5-Luc reporter gene assay in stably transduced SW480 colon carcinoma cells; settings: Homo sapiens, overnight incubation, 10-point curve from 10 μM
Method in brief: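 SW480 cells stably transduced with a luciferase reporter driven by an Sp5 promoter of eight TCF/LEF sites were plated at 4,000 cells/well in 1% FBS medium. They were exposed overnight at 37° C to a 10-point 1:3 dilution series from 10 μM (0.1% DMSO). Luminescence was normalized to DMSO for four-parameter EC50, or percent inhibition at 10 μM.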

Row | SMILES | pEC50 (IL-6) | pEC50 (SW480 colon cancer cells) | pEC50 [2] | pEC50 [1]
1 | CCC(=O)Nc1cncc(-c2ccc3[nH]nc(-c4cc5c(-c6cc(F)cc(CNS(C)(=O)=O)c6)cccc5[nH]4)c3c2)c1 [Compound 477, N-(5-(3-(4-(3-Fluoro-5-(methylsulfonamidomethyl)phenyl)-1H-indol-2-yl)-1H-indazol-5-yl)pyridin-3-yl)propionamide] | 6.23 | 6.09 | 6.87 | 6.65
2 | Cc1ccncc1-c1ccc2[nH]nc(-c3cc4c(-c5cc(F)cc(CNS(C)(=O)=O)c5)cccc4[nH]3)c2c1 [Compound 481, N-(3-Fluoro-5-(2-(5-(4-methylpyridin-3-yl)-1H-indazol-3-yl)-1H-indol-4-yl)benzyl)methanesulfonamide] | 6.91 | 6.05 | 6.98 | 6.81
3 | O=C(Nc1cncc(-c2ccc3[nH]nc(-c4cc5c(-c6cccnc6)cccc5[nH]4)c3c2)c1)C1CCC1 [Compound 105, N-(5-(3-(4-(Pyridin-3-yl)-1H-indol-2-yl)-1H-indazol-5-yl)pyridin-3-yl) cyclobutanecarboxamide] | 6.76 | 6.22 | 6.96 | 6.84
4 | CCCCC(=O)Nc1cncc(-c2ccc3[nH]nc(-c4cc5c(N6CCN(C)CC6)cccc5[nH]4)c3c2)c1 [Compound 243, N-(5-(3-(4-(4-Methylpiperazin-1-yl)-1H-indol-2-yl)-1H-indazol-5-yl)pyridin-3-yl)pentanamide] | 7.82 | 5.74 | 6.18 | 5.90
5 | CC(C)Nc1cncc(-c2ccc3[nH]nc(-c4cc5c(-c6cccnc6)cccc5[nH]4)c3c2)c1 [Compound 96, N-Isopropyl-5-(3-(4-(pyridin-3-yl)-1H-indol-2-yl)-1H-indazol-5-yl)pyridin-3-amine] | 6.79 | 5.94 | 7.00 | 6.79
6 | CN(C)c1cncc(-c2ccc3[nH]nc(-c4cc5c(-c6ccoc6)cccc5[nH]4)c3c2)c1 [Compound 315, 5-(3-(4-(Furan-3-yl)-1H-indol-2-yl)-1H-indazol-5-yl)-N,N-dimethylpyridin-3-amine] | 6.70 | 6.20 | 6.35 | 5.37
7 | CC(C)C(=O)Nc1cncc(-c2ccc3[nH]nc(-c4cc5c(-c6ccccc6F)cccc5[nH]4)c3c2)c1 [Compound 65, N-(5-(3-(4-(2-Fluorophenyl)-1H-indol-2-yl)-1H-indazol-5-yl)pyridin-3-yl) isobutyramide] | 6.98 | 6.01 | 5.93 | 6.52
8 | CC(C)(C)C(=O)Nc1cncc(-c2ccc3[nH]nc(-c4cc5c(-c6cccnc6)cccc5[nH]4)c3c2)c1 [Compound 92, N-(5-(3-(4-(Pyridin-3-yl)-1H-indol-2-yl)-1H-indazol-5-yl)pyridin-3-yl) pivalamide] | 6.82 | 5.88 | 6.85 | 6.21
9 | Fc1ccccc1-c1cccc2[nH]c(-c3n[nH]c4ccc(-c5cncc(CN6CCC(F)(F)C6)c5)cc34)cc12 [Compound 82, 5-(5-((3,3-Difluoropyrrolidin-1-yl)methyl)pyridin-3-yl)-3-(4-(2-fluorophenyl)-1H-indol-2-yl)-1H-indazole] | 5.37 | 5.28 | 5.53 | 5.65
10 | CN(C)CCNc1cc(F)cc(-c2cccc3[nH]c(-c4n[nH]c5ccc(-c6cncc(NC(=O)c7ccccc7)c6)cc45)cc23)c1 [Compound 459, N-(5-(3-(4-(3-((2-(Dimethylamino)ethyl)amino)-5-fluorophenyl)-1H-indol-2-yl)-1H-indazol-5-yl)pyridin-3-yl)benzamide] | 6.96 | 6.67 | 7.17 | 7.11
11 | CCCCC(=O)Nc1cncc(-c2ccc3[nH]nc(-c4cc5c(-c6ccccc6F)cccc5[nH]4)c3c2)c1 [Compound 75, N-(5-(3-(4-(2-Fluorophenyl)-1H-indol-2-yl)-1H-indazol-5-yl)pyridin-3-yl) pentanamide] | 6.00 | 5.32 | 5.71 | 5.70

Now from value to compound, other results behind:

Row | pEC50 (IL-6) | pEC50 (SW480 colon cancer cells) | pEC50 [2] | SMILES | pEC50 [1]
12 | 6.10 | 6.34 | 6.72 | CS(=O)(=O)NCc1cc(F)cc(-c2cccc3[nH]c(-c4n[nH]c5ccc(-c6cncc(OCc7ccccc7)c6)cc45)cc23)c1 [Compound 802, N-(3-(2-(5-(5-(Benzyloxy)pyridin-3-yl)-1H-indazol-3-yl)-1H-indol-4-yl)-5-fluorobenzyl)methanesulfonamide] | 6.40
13 | 5.97 | 6.25 | 6.92 | CN(C)Cc1cncc(-c2ccc3[nH]nc(-c4cc5c(-c6cc(F)cc(CNS(C)(=O)=O)c6)cccc5[nH]4)c3c2)c1 [Compound 489, N-(3-(2-(5-(5-((Dimethylamino)methyl)pyridin-3-yl)-1H-indazol-3-yl)-1H-indol-4-yl)-5-fluorobenzyl)methanesulfonamide] | 6.39
14 | 7.13 | 5.90 | 6.33 | NC1CN(c2cncc(-c3ccc4[nH]nc(-c5cc6c(N7CCCCC7)cccc6[nH]5)c4c3)n2)C1 [Compound 634, 1-(6-(3-(4-(piperidin-1-yl)-1H-indol-2-yl)-1H-indazol-5-yl)pyrazin-2-yl)azetidin-3-amine] | 6.10
15 | 5.89 | 5.67 | 6.24 | O=C(CC1CCCCC1)Nc1cncc(-c2ccc3[nH]nc(-c4cc5c(-c6ccsc6)cccc5[nH]4)c3c2)c1 [Compound 707, 2-Cyclohexyl-N-(5-(3-(4-(thiophen-3-yl)-1H-indol-2-yl)-1H-indazol-5-yl)pyridin-3-yl)acetamide] | < 5.00
16 | 7.11 | 6.34 | 6.65 | CN(C)CCNc1cc(F)cc(-c2cccc3[nH]c(-c4n[nH]c5ccc(-c6cncc(N7CC(N)C7)n6)cc45)cc23)c1 [Compound 810, N^1-(3-(2-(5-(6-(3-Aminoazetidin-1-yl)pyrazin-2-yl)-1H-indazol-3-yl)-1H-indol-4-yl)-5-fluorophenyl)-N^2,N^2-dimethylethane-1,2-diamine] | 6.19
17 | 7.92 | 6.02 | 6.82 | Cn1cc(-c2ccc3[nH]nc(-c4cc5c(-c6cccnc6)cccc5[nH]4)c3c2)cn1 [Compound 584, 5-(1-Methyl-1H-pyrazol-4-yl)-3-(4-(pyridin-3-yl)-1H-indol-2-yl)-1H-indazole] | 5.17
18 | 7.01 | 6.46 | 6.33 | CCNCc1cncc(-c2ccc3[nH]nc(-c4cc5ncccc5[nH]4)c3c2)c1 [Compound 510, N-((5-(3-(1H-pyrrolo[3,2-b]pyridin-2-yl)-1H-indazol-5-yl)pyridin-3-yl)methyl)ethanamine] | 5.80
19 | 5.46 | 5.85 | 5.99 | Fc1ccccc1-c1cccc2[nH]c(-c3n[nH]c4ccc(-c5cncc(OC6CCNCC6)c5)cc34)cc12 [Compound 572, 3-(4-(2-Fluorophenyl)-1H-indol-2-yl)-5-(5-(piperidin-4-yloxy)pyridin-3-yl)-1H-indazole] | 5.65
